Results published in publication PMC10916382, “Repurposing screen identifies novel candidates for broad-spectrum coronavirus antivirals and druggable host targets” (Antimicrobial Agents and Chemotherapy, 2024).
Where two headings read alike, the source gives them in different places.

Tests used:
SARS-CoV-2 [1] = settings: for outcome against confirmation criteria of the SARS-CoV-2 counter-screen (<50% infected cell, >75% total cells): single dose of 5 µM
SARS-CoV-2 [2] = system: SARS-CoV-2
HCoV-229E = experiment: microbe, parasite or virus in culture; type: cell-based, Homo sapiens sapiens
in vitro [3] = settings: human
in vitro [4] = experiment: in vitro
[5] = Huh-7.5 cells, dose series, maximum tested dose 5 µM
[6] = Calu-3 cells, immunofluorescence imaging
[7] = Human coronavirus 229E, Huh7.5, read-out: IC50 (µM), HCoV 229E
[8] = Huh-7.5/F-Luc cells, maximum tested dose 5 µM
[9] = Anti-SARS-CoV-2 screening on Calu-3 cells: viability [% of control], Calu-3 cells

| SMILES | Anti-SARS-CoV-2 screening on Calu-3 cells: intracellular SARS-CoV-2 infection measured via immunofluorescence imaging [% of control] (SARS-CoV-2 [1]; [6]) | viability at 5 µM (in vitro [3]) [%] | IC50 (HCoV-229E; [7]) [µM] | viability at 48 h, 5 µM (in vitro [4]) [%] | CC50 (µM) (Huh-7.5/F-Luc cells; [8]) | viability (in vitro [4]; [9]) [%] | also measured |
| --- | --- | --- | --- | --- | --- | --- | --- |
| COc1cc(F)ccc1-c1cc(Nc2cc(CS(C)(=N)=O)ccn2)ncc1F (single isomer, unassigned; (+)) [(+)-BAY-1251152, reference compound] | 51.46 % of control | – | – | – | – | – | CC50 (µM) (Huh-7.5/F-Luc cells; [5]): greater than maximum tested dose; % cell viability at max. dose [5 µM] (Huh-7.5/F-Luc cells; at max. dose 5 µM): 115.26%; Anti-SARS-CoV-2 screening on Calu-3 cells: viability [% of control] (SARS-CoV-2 [1]; Calu-3 cells): 100.11 % of control; outcome against confirmation criteria of the SARS-CoV-2 counter-screen (<50% infected cell, >75% total cells) (SARS-CoV-2 [1]; Calu-3 cells): did not meet our stringent confirmation criteria; virus load in the culture fluid (SARS-CoV-2 [2]): reduced virus load; IC50 (HCoV-229E; HCoV 229E infection, dose series, max. dose 5 µM, read-out: IC50): 0.13 µM |
| CC(=O)[C@]1(O)Cc2c(O)c3c(c(O)c2[C@@H](O[C@H]2C[C@H](N)[C@H](O)[C@H](C)O2)C1)C(=O)c1ccccc1C3=O [RFM-000-458-0] | – | 103 | 1.55 | 15 | – | – | CC50 (µM) (Huh-7.5/F-Luc cells): greater than maximum tested dose; Anti-SARS-CoV-2 screening on Calu-3 cells: intracellular SARS-CoV-2 infection measured via immunofluorescence imaging [% of control] (SARS-CoV-2 [1]): 139.58 % of control |
| OCCN1CCN(CCCN2c3ccccc3Sc3ccc(Cl)cc32)CC1 [RFM-000-391-8] | 116.90 % of control | 181 | 1.84 | 110 | greater than maximum tested dose | – | – |
| CC(=O)N(C)C1(c2ccccc2)CCN(CCC[C@]2(c3ccc(Cl)c(Cl)c3)CCCN(C(=O)c3ccccc3)C2)CC1 [RFM-000-080-6] | 106.27 % of control | 131 | 1.5 | – | greater than maximum tested dose | 113 | – |
| OCCN1CCN(CCC=C2c3ccccc3Sc3ccc(C(F)(F)F)cc32)CC1 [RFM-000-079-3] | 104.52 % of control | 145 | 1.73 | 105 | greater than maximum tested dose | – | – |
| CN1C[C@H](CNC(=O)OCc2ccccc2)C[C@@H]2c3cccc4c3c(cn4C)C[C@H]21 [RFM-005-941-6] | 125.57 % of control | 163 | 1.26 | 117 | greater than maximum tested dose | – | – |
| CCc1ccc2c(c1)N(CC(C)CN(C)C)c1ccccc1S2 (centres unmarked) [RFM-012-636-3] | 133.66 % of control | 138 | 1.71 | 108 | greater than maximum tested dose | – | – |
| CCCCC1=Cc2cc3c(cc2C1N1CCN(C)CC1)OCO3 (centres unmarked) [RFM-005-200-6] | 112.43 % of control | 145 | 2.5 | – | greater than maximum tested dose | 102 | – |
| COc1cc(Nc2ncc(F)c(Nc3ccc4c(n3)N(COP(=O)(O)O)C(=O)C(C)(C)O4)n2)cc(OC)c1OC [RFM-004-140-7] | 134.69 % of control | 93.7 | 4.09 | 86.2 | greater than maximum tested dose | – | – |
| COc1cccc(CCc2ccccc2OCC[C@@H]2C[C@@H](O)CN2C)c1 [RFM-011-187-5] | 105.26 % of control | 131 | 2.43 | – | greater than maximum tested dose | 102 | – |
| CCOC(=O)/C=C/[C@H](C[C@@H]1CCNC1=O)NC(=O)[C@@H](CC(=O)[C@@H](NC(=O)c1cc(C)on1)C(C)C)Cc1ccc(F)cc1 [RFM-010-414-3] | 93.65 % of control | 94.6 | 4.19 | – | greater than maximum tested dose | 100 | – |
| CCCN(CCC)C(=O)C(Cc1ccc(OCCCN2CCN(C)CC2)cc1)NC(=O)c1ccc(Cl)cc1 (centres unmarked) [RFM-009-534-1] | 104.27 % of control | 135 | 3.36 | – | greater than maximum tested dose | 103 | – |
| CN[C@@H](CC(C)C)C(=O)NCCCC(c1ccc(F)cc1)c1ccc(F)cc1 [RFM-010-013-0] | 111.66 % of control | 136 | 2.77 | – | greater than maximum tested dose | 99.2 | – |
| COCCN1CCN(Cc2ccc(-c3n[nH]c4c3C(=O)c3c(NC(=O)NN5CCOCC5)cccc3-4)cc2)CC1 [RGB-286638, reference compound] | 123.82 % of control | – | – | – | – | 19 | CC50 (µM) (Huh-7.5/F-Luc cells; [5]): greater than maximum tested dose; outcome against confirmation criteria of the SARS-CoV-2 counter-screen (<50% infected cell, >75% total cells) (SARS-CoV-2 [1]; Calu-3 cells): did not meet our stringent confirmation criteria; virus load in the culture fluid (SARS-CoV-2 [2]; Calu-3 cells, screening dose 5 µM, 48 hours post-inoculation): reduced virus load; IC50 (HCoV-229E; Human coronavirus 229E, Huh7.5): 0.12 µM |
| CC(C)NCC(O)COc1ccc(CC(=O)OCCC23CC4CC(CC(C4)C2)C3)cc1 (centres unmarked) [RFM-010-929-5] | 113.56 % of control | 122 | 1.76 | – | greater than maximum tested dose | 90.2 | – |
| CC(Cc1ccccc1)NCCC(c1ccccc1)c1ccccc1 (centres unmarked) [RFM-000-835-5] | 102.68 % of control | 140 | 1.53 | 102 | greater than maximum tested dose | – | – |
| CNCCC(Oc1cccc2ccccc12)c1cccs1 (centres unmarked) [RFM-000-319-0] | – | 143 | – | – | – | – | CC50 (µM) (Huh-7.5/F-Luc cells): greater than maximum tested dose; Anti-SARS-CoV-2 screening on Calu-3 cells: intracellular SARS-CoV-2 infection measured via immunofluorescence imaging [% of control] (SARS-CoV-2 [1]): 109.17 % of control; IC50 (HCoV-229E; Human coronavirus 229E, Huh7.5, read-out: IC50 (µM), HCoV 229E, HCoV-229E/R-Luc on Huh-7.5/F-Luc cells, dose series, max. dose 5 µM): 1.44 µM; viability (in vitro [4]; Anti-SARS-CoV-2 screening on Calu-3 cells: viability [% of control]): 104% |
| CN1CCN(CC/C=C2/c3ccccc3Sc3ccc(S(=O)(=O)N(C)C)cc32)CC1 [RFM-003-384-1] | – | 148 | 1.22 | 114 | – | – | CC50 (µM) (Huh-7.5/F-Luc cells): greater than maximum tested dose; Anti-SARS-CoV-2 screening on Calu-3 cells: intracellular SARS-CoV-2 infection measured via immunofluorescence imaging [% of control] (SARS-CoV-2 [1]): 116.45 % of control |
| OCCN1CCN(CCCC2c3ccc(F)cc3Sc3ccc(C(F)(F)F)cc32)CC1 (centres unmarked) [RFM-010-066-3] | 109.58 % of control | 148 | 2.98 | – | greater than maximum tested dose | 86.5 | – |
| Cn1cc(C2=C(c3c4n(c5ccccc35)CCC(CN)C4)C(=O)NC2=O)c2ccccc21 (centres unmarked) [RFM-009-039-1] | 111.69 % of control | 154 | 1.73 | – | greater than maximum tested dose | 95.9 | – |
| CNc1cc(OC)c(C(=O)N[C@@H]2CCN(Cc3ccccc3)[C@@H]2C)cc1Cl [RFM-000-360-1] | 103.45 % of control | 134 | 2.36 | – | greater than maximum tested dose | – | viability (in vitro [4]): 109% |
| CCN1[C@@H]2CC[C@H]1C[C@@H](OC(c1ccccc1)c1ccccc1)C2 [RFM-011-925-5] | 108.20 % of control | 136 | 1.62 | – | greater than maximum tested dose | 117 | – |
